Experimental data from US20210214368A1, “COMPOUNDS FOR THIOL-TRIGGERED COS AND/OR H2S RELEASE AND METHODS OF MAKING AND USING THE SAME” (University of Oregon, priority 2018, published 2021).

Experiments:
[1] = Thiol-triggered H2S release in PBS containing CA (MB assay); conditions: compound 50 μM
Protocol: To evaluate thiol effects on COS/H2S release from cyclic perthiocarbamate compound embodiments, compound 306a (50 μM) was incubated in PBS (pH 7.4, 10 mM) containing Cys or GSH (up to 4.0 mM) and CA (25 μg/mL) and H2S release was monitored by MB assay. […] Additionally, other thiol triggers, such as cysteine, homocysteine, and N-acetyl cysteine, were combined with compound 306a to evaluate if they would trigger the compound to release H2S.
In this example, GSH-triggered H2S release from compound 900 was evaluated. […] To improve the H2S releasing capacity of ATB-346, compound 900 was made by reacting ATB-346 with chlorocarbonyl sulfenyl chloride reagent (see Scheme 9). The resultant compound 900 was then added to PBS containing GSH and CA.
Release of H2S from compound 404c (25 μM) in the presence of L-cysteine or reduced glutathione (GSH) (500 μM, 20 equiv.) measured by the spectrophotometric methylene blue assay, with results shown in FIG. 17.
In this example, additional compounds, such as cyclic sulfenyl thiocarbamate compounds 306a-306e, were evaluated for their ability to release H2S upon exposure to a biological thiol, cysteine.
With the hybrid NSAID in hand, COS/H2S release in aqueous buffer was evaluated.

HeLa cells = experiment: Imaging of H2S delivery in HeLa cells with SF7-AM probe; format: cell-based; conditions: compound 50 μM 30 minutes, SF7-AM 5 μM
Protocol: In this example, H2S delivery from sulfenyl thiocarbamate compound 306a in HeLa cells was evaluated. HeLa cells were treated with Hoechst dye and SF7-AM (5 μM) in DMEM only for 5 minutes and then with DMEM only for 30 minutes (top row) or DMEM containing the compound (50 μM) for 30 minutes (bottom row). Cells were then washed with PBS and cell images were taken in PBS using a fluorescent microscope.

Structure (SMILES): O=c1nc(-c2ccccc2)ss1 [Compound 306a]
- GSH-dependent H2S release ([1]; GSH up to 4.0 mM, CA 25 μg/mL, PBS pH 7.4): GSH-dependent H2S release was observed
- H2S release in the presence of thiols GSH, Cys, Hcy, and NAC ([1]; PBS, CA): H2S release was observed
- H2S release with GSSG, Lys, Ser, Gly, S2O3^2−, SO3^2−, SO4^2− ([1]; PBS, CA): did not activate the compound and minimal H2S release was observed
- H2S release with penicillamine ([1]; PBS, CA): minimal H2S release
- H2S release in the absence of thiol trigger ([1]; PBS, no thiol): Negligible H2S release was observed
- SF7-AM (H2S probe) fluorescence in HeLa cells (HeLa cells): strong SF7-AM fluorescent signal
